Experiments:
amylase = experiment: Amylase activity retention in detergent use solution (4000 ppm, 5 GPG water; ethylidene substrate EPS, HEPES buffer pH 8.0); assay type: biochemical
Experimental: (§1) The enzyme activities in the detergents with different phosphonate levels were tested at 4000 ppm in 5 grains per gallon (GPG) water at 120° F. with various time points collected up to 4 hours, after a use solution was generated from the detergent composition. During the tests, the samples at different time points were collected and immediately frozen in an acetone/dry ice bath and stored in −80° C. before the activity of the enzyme was evaluated. For the use of such an assay, t=0 min was the reference point for 100% enzyme activity.
(§2) Assays of enzyme activity in formulations (% retention) were conducted to simulate a presoak condition in a beaker using the chemistry, temperature, and pH conditions relevant to manual warewash or presoak applications. Enzyme activity is an indicator of the stability of the enzyme in the detergent, specifically in an aqueous use solution within a sump (which is under conditions of high pH, temperature and dilution).
Enzyme activity under presoak or manual warewash conditions was traced quantitatively using a standard protease assay. Samples were prepared under bench top conditions, whereby the use solution from a detergent composition or detergent was obtained and maintained at a presoak or manual warewash temperature in a stirring water bath. After the time course for assessing enzyme stability is initiated, aliquots were taken at various time points and flash-frozen. A time=0 sample was prepared for each series by dissolving the detergent formulation at room temperature, mixing thoroughly, and flash freezing. Samples were thawed and diluted as necessary in an assay buffer usually for use in the protease assay. A glycine buffer at pH 9.0 is used here. The assay monitored the direct reaction of the protease on a small, commercially available peptidyl substrate, with liberation of the product providing correlation to the active enzyme content. The product was detected using a plate reader with an appreciable dynamic range (upper absorbance limit of the instrument >3.5). Enzyme activity levels were assessed relative to a calibration curve with average values for replicate tests used to map protease stability under presoak or manual warewash use conditions. Enzyme retention at each time point was calculated as the % enzyme activity relative to the time=0 sample.
The analysis by lipase and amylase assay was conducted similarly, except with a different substrate and buffers. For lipase activity, the substrate is p-nitrophenyl valerate, and for amylase, the substrate is an ethylidene substrate (EPS). The buffer used in lipase assay is TRIS (Tris(hydroxymethyl)aminomethane) buffer at pH 8.0, and in amylase assay HEPES (4-(2-hydroxyethyl)-1-piperazineethanesulfonic acid) buffer at pH 8.0.

[1] = system: enzyme (protease, amylase, lipase); experiment: Overall effects of phosphonates on enzyme activity (Table 3); assay type: biochemical; conditions: overall effect of the phosphonate on enzyme activity in the detergent use solution
Experimental: as §1, §2
The relative enzyme activities in a use solution of the tested detergent compositions containing a different phosphonate at different concentrations over a period time are listed in Table 4A-Table 4E, Table 5A-Table 5E, and Table 6A-Table 6F.

In the case of `O=P(O)(O)CN(CP(=O)(O)O)CP(=O)(O)O` [ATMP, Aminotri (methylene phosphonic acid)], the “Relative Amylase Enzyme Activity” value (amylase; All Ash formula, phosphonate 0.3 wt-%, use solution at 120° F., time 0 min) is reported as 98.49%, the “Relative Amylase Enzyme Activity” value (amylase; All Ash formula, phosphonate 0.3 wt-%, use solution at 120° F., time 5 min) is reported as 100.00% and the “Relative Amylase Enzyme Activity” value (amylase; All Ash formula, phosphonate 0.3 wt-%, use solution at 120° F., time 10 min) is reported as 98.40%. For the same molecule, the “Relative Amylase Enzyme Activity” value (amylase; All Ash formula, phosphonate 0.3 wt-%, use solution at 120° F., time 20 min) was 97.90%, the “Relative Amylase Enzyme Activity” value (amylase; All Ash formula, phosphonate 0.3 wt-%, use solution at 120° F., time 40 min) was 91.03% and the “Relative Amylase Enzyme Activity” value (amylase; All Ash formula, phosphonate 0.3 wt-%, use solution at 120° F., time 60 min) was 86.91%. For the same molecule, the “Relative Amylase Enzyme Activity” value (amylase; All Ash formula, phosphonate 0.3 wt-%, use solution at 120° F., time 90 min) was 87.68%, the “Relative Amylase Enzyme Activity” value (amylase; All Ash formula, phosphonate 0.3 wt-%, use solution at 120° F., time 120 min) was 80.93% and the “Relative Amylase Enzyme Activity” value (amylase; All Ash formula, phosphonate 0.3 wt-%, use solution at 120° F., time 150 min) was 83.80%. The “Relative Amylase Enzyme Activity” value (amylase; All Ash formula, phosphonate 0.3 wt-%, use solution at 120° F., time 180 min) was 80.91%, the “Relative Amylase Enzyme Activity” value (amylase; All Ash formula, phosphonate 0.3 wt-%, use solution at 120° F., time 210 min) was 84.34% and the “Relative Amylase Enzyme Activity” value (amylase; All Ash formula, phosphonate 0.3 wt-%, use solution at 120° F., time 240 min) was 83.21%. For the same molecule, the “amylase stability in all ash formula” value (amylase; all ash formula, versus same composition with PBTC or HEDP without amine(s), FIG. 4D) was “more stable”, the “Relative Amylase Enzyme Activity” value (amylase; base formula, phosphonate 0.3 wt-%, use solution at 120° F., time 0 min) was 100.00% and the “Relative Amylase Enzyme Activity” value (amylase; base formula, phosphonate 0.3 wt-%, use solution at 120° F., time 5 min) was 89.47%. For the same molecule, the “Relative Amylase Enzyme Activity” value (amylase; base formula, phosphonate 0.3 wt-%, use solution at 120° F., time 10 min) was 82.94%, the “Relative Amylase Enzyme Activity” value (amylase; base formula, phosphonate 0.3 wt-%, use solution at 120° F., time 20 min) was 79.67% and the “Relative Amylase Enzyme Activity” value (amylase; base formula, phosphonate 0.3 wt-%, use solution at 120° F., time 40 min) was 90.79%. For the same molecule, the “Relative Amylase Enzyme Activity” value (amylase; base formula, phosphonate 0.3 wt-%, use solution at 120° F., time 60 min) was 89.94%, the “Relative Amylase Enzyme Activity” value (amylase; base formula, phosphonate 0.3 wt-%, use solution at 120° F., time 90 min) was 94.47% and the “Relative Amylase Enzyme Activity” value (amylase; base formula, phosphonate 0.3 wt-%, use solution at 120° F., time 120 min) was 95.08%. The “Relative Amylase Enzyme Activity” value (amylase; base formula, phosphonate 0.3 wt-%, use solution at 120° F., time 150 min) was 94.00%, the “Relative Amylase Enzyme Activity” value (amylase; base formula, phosphonate 0.3 wt-%, use solution at 120° F., time 180 min) was 90.87% and the “Relative Amylase Enzyme Activity” value (amylase; base formula, phosphonate 0.3 wt-%, use solution at 120° F., time 210 min) was 94.61%. For the same molecule, the “Relative Amylase Enzyme Activity” value (amylase; base formula, phosphonate 0.3 wt-%, use solution at 120° F., time 240 min) was 96.54%, the “Relative Amylase Enzyme Activity” value (amylase; base formula, phosphonate 0.6 wt-%, use solution at 120º F., time 0 min) was 100.00% and the “Relative Amylase Enzyme Activity” value (amylase; base formula, phosphonate 0.6 wt-%, use solution at 120º F., time 5 min) was 87.10%. For the same molecule, the “Relative Amylase Enzyme Activity” value (amylase; base formula, phosphonate 0.6 wt-%, use solution at 120º F., time 10 min) was 92.19%, the “Relative Amylase Enzyme Activity” value (amylase; base formula, phosphonate 0.6 wt-%, use solution at 120º F., time 20 min) was 80.12% and the “Relative Amylase Enzyme Activity” value (amylase; base formula, phosphonate 0.6 wt-%, use solution at 120º F., time 40 min) was 77.64%. The “Relative Amylase Enzyme Activity” value (amylase; base formula, phosphonate 0.6 wt-%, use solution at 120º F., time 60 min) was 91.13%, the “Relative Amylase Enzyme Activity” value (amylase; base formula, phosphonate 0.6 wt-%, use solution at 120º F., time 90 min) was 92.19% and the “Relative Amylase Enzyme Activity” value (amylase; base formula, phosphonate 0.6 wt-%, use solution at 120º F., time 120 min) was 93.02%. The “Relative Amylase Enzyme Activity” value (amylase; base formula, phosphonate 0.6 wt-%, use solution at 120º F., time 150 min) was 101.54%, the “Relative Amylase Enzyme Activity” value (amylase; base formula, phosphonate 0.6 wt-%, use solution at 120º F., time 180 min) was 80.83% and the “Relative Amylase Enzyme Activity” value (amylase; base formula, phosphonate 0.6 wt-%, use solution at 120º F., time 210 min) was 92.78%. The “Relative Amylase Enzyme Activity” value (amylase; base formula, phosphonate 0.6 wt-%, use solution at 120º F., time 240 min) was 86.75%, the “Relative Amylase Enzyme Activity” value (amylase; base formula, phosphonate at 0.1% elemental phosphorus level, use solution at 120º F., time 0 min) was 82.19% and the “Relative Amylase Enzyme Activity” value (amylase; base formula, phosphonate at 0.1% elemental phosphorus level, use solution at 120º F., time 5 min) was 100.00%. For the same molecule, the “Relative Amylase Enzyme Activity” value (amylase; base formula, phosphonate at 0.1% elemental phosphorus level, use solution at 120º F., time 10 min) was 107.32%, the “Relative Amylase Enzyme Activity” value (amylase; base formula, phosphonate at 0.1% elemental phosphorus level, use solution at 120º F., time 20 min) was 106.35% and the “Relative Amylase Enzyme Activity” value (amylase; base formula, phosphonate at 0.1% elemental phosphorus level, use solution at 120º F., time 40 min) was 100.35%. For the same molecule, the “Relative Amylase Enzyme Activity” value (amylase; base formula, phosphonate at 0.1% elemental phosphorus level, use solution at 120º F., time 60 min) was 106.09%, the “Relative Amylase Enzyme Activity” value (amylase; base formula, phosphonate at 0.1% elemental phosphorus level, use solution at 120º F., time 90 min) was 101.79% and the “Relative Amylase Enzyme Activity” value (amylase; base formula, phosphonate at 0.1% elemental phosphorus level, use solution at 120º F., time 120 min) was 104.38%. For the same molecule, the “Relative Amylase Enzyme Activity” value (amylase; base formula, phosphonate at 0.1% elemental phosphorus level, use solution at 120º F., time 150 min) was 101.75%, the “Relative Amylase Enzyme Activity” value (amylase; base formula, phosphonate at 0.1% elemental phosphorus level, use solution at 120º F., time 180 min) was 103.89% and the “Relative Amylase Enzyme Activity” value (amylase; base formula, phosphonate at 0.1% elemental phosphorus level, use solution at 120º F., time 210 min) was 100.38%. For the same molecule, the “Relative Amylase Enzyme Activity” value (amylase; base formula, phosphonate at 0.1% elemental phosphorus level, use solution at 120º F., time 240 min) was 107.10% and the “Stability (effects on enzyme activity)” value [1] was “Yes”.

— patent US11807835B2, “Detergent compositions containing a stabilized enzyme by phosphonates” (ECOLAB USA INC., priority 2016, dated 2023)
